“Also recorded” adds a separate entry of the source.
Columns and labels:
[1] = system: inflammation related markers in aortas; assay: qPCR of inflammation related markers in aortas; format: in vivo, C57BL/6J mice; conditions: 22-months-old mice, NMN IP 500 mg/kg/day, 7 days
Description: (§1) C57BL/6J mice of 3, 6, 22, or 24 months of age were obtained from the National Institutes of Aging mouse aging colony. Mice were acclimated for at least one-week prior to sacrifice. 3, 6, 22 and 24-month-old mice were given interperitoneal (IP) injections of 500 mg NMN/kg body weight per day or the equivalent volume of PBS for 7 consecutive days at 5:00 pm and 7:00 am on day 8 and sacrificed 4 hr after last injection. All animal studies followed the guidelines of and were approved by the Harvard Institutional Animal Care and Use Committee
(§2) RNA from skeletal muscle and aorta were extracted with RNeasy mini kit (Qiagen) according to the instructions and quantified using the NanoDrop 1000 spectrophotometer (Thermo Scientific). cDNA was synthesized with the iSCRIP cDNA synthesis kit (BioRad) using 600 ng of RNA. Quantitative RT-PCR reactions were performed using 1 μM of primers and LightCycler® 480 SYBR Green Master (Roche) on an LightCycler® 480 detection system (Roche). Calculations were performed by a comparative method (2-ΔCT) using 18S as an internal control. Primers were designed using the IDT software (IDT).

[2] = system: skeletal muscle mitochondria; assay: Mitochondrial function in skeletal muscle (membrane potential, ATP content, COX activity); format: in vivo, mice
Description: as §1, with “6, 22, 24, or 30” for “6, 22, or 24”, “24, or 30 months of” for “22, or 24 months of”, “sacrifice. 3, and 24-month-old” for “sacrifice. 3, 6, 22 and 24-month-old”
Skeletal muscle mitochondria were isolated as described previously (Frezza et al., Nat. Protoc. 2:287-295 (2007)). Mitochondrial membrane potential, cytochrome c activity and succinate dehydrogenase were determined as described (Brautigan et al., Methods Enzymol. 53:128-164 (1978); Rolo et al., Biochim. Biophys. Acta. 1637:127-132 ([…]); Singer, T. P., Methods Biochem. Anal. 22:123-175 (1974)). ATP content was measured with a commercial kit according to the manufacturer's instructions (Roche).
(§3) C57BL/6J mice of 6, 22, or 30 months of age were obtained from the National Institutes of Aging mouse aging colony. Additionally 22 months old caloric restricted mice were also obtained from the National Institutes of Aging mouse aging colony. EGLN1 KO, SIRT1 KO and SIRT1 OE mice were generated as previously described (Minamishima et al., 2008; Price et al., 2012). Mice were acclimated for at least one-week prior to sacrifice. 3, 6, 22 and 24-month-old mice were given interperitoneal (IP) injections of 500 mg NMN/kg body weight per day or the equivalent volume of PBS for 7 consecutive days at 5:00 pm and 7:00 am on day 8 and sacrificed 4 hr after last injection.
Whole body adult-inducible Egln1 knockout mice (Minamishima et al, 2007) were treated with IP injection of tamoxifen for 3 days after which they were allowed to rest. The mice were given interperitoneal (IP) injections of 500 mg NMN/kg body weight per day or the equivalent volume of PBS for 7 consecutive days at 5:00 pm and 7:00 am on day 8 and sacrificed 4 hr after last injection. All animal studies followed the guidelines of and were approved by the Harvard Institutional Animal Care and Use Committee.
Cytochrome c oxidase activity was polarographically determined based on the 02 consumption upon cytochrome c oxidation, as previously described (Brautigan et al., 1978). The reaction was carried out at 25° C. in 1.3 mL of standard respiratory medium (as in mitochondrial respiration) supplemented with 2 μM rotenone, 10 μM oxidized cytochrome c, 0.3 mg TritonX-100. Following addition of the sample, the reaction was initiated by adding 5 mM ascorbate plus 0.25 mM tetramethylphenylene-diamine (TMPD).
ATP content was measured with a commercial kit according to the manufacturer's instructions (Roche).

[3] = system: HIF-1α target genes (PGK-1, Glut1, PKD1, VEGFa); assay: qPCR of HIF-1α target genes in gastrocnemius of NMN-treated mice; format: in vivo; conditions: 24-month-old mice; NMN 500 mg/kg IP, one week
Description: as §1, with “6, 22, 24, or 30” for “6, 22, or 24”, “24, or 30 months of” for “22, or 24 months of”, “sacrifice. 3, and 24-month-old” for “sacrifice. 3, 6, 22 and 24-month-old”
RNA from skeletal muscle tissue and C2C12 cells were extracted with RNeasy mini kit (Qiagen) according to the instructions and quantified using the NanoDrop 1000 spectrophotometer (Thermo Scientific). cDNA was synthesized with the iSCRIP cDNA synthesis kit (BioRad) using 600 ng of RNA. Quantitative RT-PCR reactions were performed using 1 μM of primers and LightCycler® 480 SYBR Green Master (Roche) on an LightCycler® 480 detection system (Roche). Calculations were performed by a comparative method (2-ΔCT) using 18S as an internal control. For mtDNA analysis, total DNA was extracted with DNeasy blood and tissue kit (Qiagen). mtDNA was amplified using primers specific for the mitochondrial cytochrome c oxidase subunit 2 (COX2) gene and normalized to genomic DNA by amplification of the ribosomal protein s18 (rps18) nuclear gene. […]

[4] = system: inflammation related markers (TNFa, IL-6, IL-18); assay: qPCR of inflammation related markers in gastrocnemius; format: in vivo, C57BL/6J mice; conditions: 22-month-old mice, NMN IP 500 mg/kg/day, 7 days, 500 mg/kg/day
Description: as §1
C57BL/6J mice of 6 months of age were given interperitoneal (IP) injections of 300 mg DMOG/kg body weight per day or the equivalent volume of PBS for 5 consecutive days. All animal studies followed the guidelines of and were approved by the Harvard Institutional Animal Care and Use Committee
as §2, with “Primers were designed using the IDT software (IDT).” left out

[5] = system: VHL; assay: Immunoblot for VHL in gastrocnemius of NMN-treated mice; format: in vivo; conditions: 22-month-old mice, NMN one week
Source text: as §3
Protein extracts from tissue or C2C12 cells were obtained by lysis in ice-cold lysis buffer (150 mM NaCl, 10 mM Tris HCl (pH 7.4), 1 mM EDTA, 1 mM EGTA, 1% Triton X-100, 0.5% NP-40) supplemented with a cocktail of protease and phosphatase inhibitors (Roche). Protein content was determined by the Bradford protein assay (Biorad), and 50 μg proteins were run on SDS-PAGE under reducing conditions. The separated proteins were then electrophoretically transferred to a polyvinylidene difluoride membrane (Perkin-Elmer). […] The immunostaining was detected using horseradish peroxidase-conjugated anti-rabbit or anti-mouse immunoglobulin for 1 h at room temperature.

[6] = treated 24-month-old mice, NMN 500 mg/kg IP, one week

NC(=O)c1ccc[n+]([C@@H]2O[C@H](COP(=O)([O-])O)[C@@H](O)[C@H]2O)c1 [NMN, nicotinamide mononucleotide]
inflammation related markers (IL-6, TNFa, Nlrp3, IL-1b, CD68 and IL-10) in aortas ([1]; FIG. 26): reduces inflammation in aortas from old mice
inflammatory markers (VEGF and IL-18) in aortas ([1]; FIG. 27): reduces inflammation in aortas from old mice
ATP levels ([2]; 22-month-old mice, gastrocnemius, NMN one week): increase
ATP levels in the skeletal muscle ([2]; Egln1 KO mice treated with NMN, compared to WT controls): did not restore
ability of NMN to improve mitochondrial function ([2]; inducible SIRT1 KO mice): lost in animals lacking SIRT1
COX activity ([2]; old mice, NMN one week (FIG. 24H: 3- and 24-month-old)): increase
ATP levels [2, 6]: increases
COX activity [2, 6]: increases
mitochondrial membrane potential [2, 6]: restoration of mitochondrial membrane potential to the levels of the young mice
expression of HIF-1α target genes [3]: suppressed the expression of HIF-1α target genes
expression of inflammation markers (TNFa, IL-6, IL-18) in the skeletal muscle [4]: completely reversed; also recorded: reverses age-related increase in inflammatory markers in the skeletal muscle
VHL protein [5]: reversed the age-induced decline in VHL

Source: patent US20150265642A1, “NAD BIOSYNTHESIS AND PRECURSORS IN THE PREVENTION AND TREATMENT OF INFLAMMATION” (PRESIDENT AND FELLOWS OF HARVARD COLLEGE, priority 2013, published 2015)
